Assay results from PMC10146558, “Highly Cytotoxic Copper(II) Mixed-Ligand Quinolinonato Complexes: Pharmacokinetic Properties and Interactions with Drug Metabolizing Cytochromes P450” (Pharmaceutics, 2023).
Where two headings read alike, the source gives them in different places.

What was measured:
[1] = Chemical stability (stability in PBS); format: physicochemical; settings: 1 × PBS pH 7.4, 37 °C, 7.4 µM
Experimental: (§1) Pharmacological properties of the complexes 1 and 2, including stability in plasma, microsomal stability, binding to plasma proteins, and permeability through an artificial membrane, were tested under in vitro conditions and according to methods described in previous reports. Analysis of the samples was performed using Agilent RapidFire 300 High-Throughput Mass Spectrometry System (Agilent Technologies, Wakefield, MA, USA) with subsequent detection using the mass spectrometer Qtrap 5500 (AB Sciex, Concord, Toronto, ON, Canada), abbreviation RF-MS. The samples were aspirated directly from the plates into a 10 μL sample loop and passed through a C4 cartridge with solvent A (5% acetonitrile, 95% water, 0.1% formic acid) at a flow rate of 1.5 mL/min for 3 s. After the desalting step, analytes retained on the cartridge were eluted with solvent B (95% acetonitrile, 5% water, 0.1% formic acid) in the mass spectrometer at a flow rate of 0.4 mL/min for 5 s. The mass spectrometry of the samples was carried out using electrospray ionisation in the positive ion mode. Daughter ion peaks were identified using a multiple-reaction monitoring protocol.
(§2) The reaction was terminated by ice-cold methanol (chemical stability) or acetonitrile:methanol (2:1), and samples were left at −80 °C overnight (plasma stability). The solution was mixed and centrifuged (4000 rpm, 9 min, 4 °C). After lyophilization of supernatant, samples were dissolved in mobile phase with internal standard and analysed by RF/MS analysis.

[2] = Stability in human plasma; format: in vitro ADME; settings: 37 °C, 3.3 μM
Experimental: as §1, §2

CYP2C9 = biological target: T1, CYP2C9 (Homo sapiens, UniProt P11712); test: CYP2C9 activity (diclofenac 4′-hydroxylation) in human liver microsomes; format: biochemical; settings: for Type of inhibition, CYP2C9 / Ki: Dixon and Lineweaver–Burk plots; for Ki: substrate ½ Km to 4 Km; for IC50: human liver microsomes, diclofenac 4′-hydroxylation
T1 construct: Cryopreserved pooled human liver microsomes were obtained from Xenotech; tissue Xenotech (Lenexa, KS, USA); host or cells: pooled human liver microsomes
T1 sequence (P11712 whole entry): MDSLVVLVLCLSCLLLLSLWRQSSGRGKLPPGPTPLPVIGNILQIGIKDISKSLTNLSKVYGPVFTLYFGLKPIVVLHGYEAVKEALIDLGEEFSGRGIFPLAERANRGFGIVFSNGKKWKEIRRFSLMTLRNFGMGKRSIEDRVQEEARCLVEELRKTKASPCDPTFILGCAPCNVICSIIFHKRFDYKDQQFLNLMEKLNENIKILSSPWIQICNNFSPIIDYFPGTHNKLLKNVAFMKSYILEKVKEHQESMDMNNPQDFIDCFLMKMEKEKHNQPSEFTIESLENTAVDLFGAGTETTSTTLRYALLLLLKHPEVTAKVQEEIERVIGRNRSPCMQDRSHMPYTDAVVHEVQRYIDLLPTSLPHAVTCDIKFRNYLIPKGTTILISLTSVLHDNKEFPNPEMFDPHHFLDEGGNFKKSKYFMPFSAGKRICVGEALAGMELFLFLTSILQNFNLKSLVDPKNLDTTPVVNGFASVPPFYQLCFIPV
Experimental: (§4) For each enzyme assay, the preliminary experiments to determine Michaelis constant (Km) and limiting velocity (Vmax) were performed to calculate the time of incubation (the specified time for which the reaction is still linear) and the values of substrate concentration (in the range corresponding to the value of Km).
(§5) The reaction mixtures were buffered by 0.1 M potassium phosphate buffer (pH 7.4) and contained a NADPH-generating system consisting of the isocitrate dehydrogenase (6 U/mL), NADP^+ (0.5 mM), isocitric acid (4 mM), and MgSO4 (5 mM). The final concentration levels of complexes were obtained by diluting a 10 mM solution with dimethyl sulfoxide (DMSO). It is known that DMSO can in some cases inhibit P450; the following measures were thus applied: (a) control samples containing organic solvent without the tested compounds were prepared and used as references; (b) DMSO levels were maintained below 0.1% to minimise the inhibition. Inhibition experiments were performed using five concentration levels of the tested compounds in the range of 10–100 µM. The maximum concentration was chosen so that in the case of inhibition, it would be possible to determine the inhibitory effect of the complexes and characterise them by determining the IC50 value. Additionally, an inhibitor-free control was used as a reference. Incubations were executed in two independent batches, and the samples were prepared and measured in triplicate at 37 °C. Analyses of the metabolites formed from the specific substrates were performed by HPLC using the Prominence system (Shimadzu, Kyoto, Japan) equipped with a LiChroCART 250-4 LiChrospher 100 RP-18 column, Chromolith® HighResolution RP-18 end-capped column (Merck, Darmstadt, Germany), or Kinetex Biphenyl column (Phenomenex, Torrace, CA, USA).
(§6) The apparent Ki values were determined by additional measurements using substrate concentrations corresponding to 1/2 Km, Km, 2 Km, and 4 Km in the case of inhibition. The type of model was selected on the basis of the Lineweaver–Burk and Dixon plots. The values of IC50 were obtained by analysing the plot of the percentage of activity remaining after inhibition versus the logarithm of the inhibitor concentration using the GraphPad Prism 6 software (La Jolla, CA, USA).

CYP2C19 = biological target: T2, CYP2C19 (Homo sapiens, UniProt P33261); test: CYP2C19 activity ((S)-mephenytoin 4′-hydroxylation) in human liver microsomes; format: biochemical; settings: for Type of inhibition, CYP2C19 / Ki: Dixon and Lineweaver–Burk plots; for Ki: substrate ½ Km to 4 Km; for IC50: human liver microsomes, (S)-mephenytoin 4′-hydroxylation
T2 construct: Cryopreserved pooled human liver microsomes were obtained from Xenotech; tissue Xenotech (Lenexa, KS, USA); host or cells: pooled human liver microsomes
T2 sequence (P33261 whole entry): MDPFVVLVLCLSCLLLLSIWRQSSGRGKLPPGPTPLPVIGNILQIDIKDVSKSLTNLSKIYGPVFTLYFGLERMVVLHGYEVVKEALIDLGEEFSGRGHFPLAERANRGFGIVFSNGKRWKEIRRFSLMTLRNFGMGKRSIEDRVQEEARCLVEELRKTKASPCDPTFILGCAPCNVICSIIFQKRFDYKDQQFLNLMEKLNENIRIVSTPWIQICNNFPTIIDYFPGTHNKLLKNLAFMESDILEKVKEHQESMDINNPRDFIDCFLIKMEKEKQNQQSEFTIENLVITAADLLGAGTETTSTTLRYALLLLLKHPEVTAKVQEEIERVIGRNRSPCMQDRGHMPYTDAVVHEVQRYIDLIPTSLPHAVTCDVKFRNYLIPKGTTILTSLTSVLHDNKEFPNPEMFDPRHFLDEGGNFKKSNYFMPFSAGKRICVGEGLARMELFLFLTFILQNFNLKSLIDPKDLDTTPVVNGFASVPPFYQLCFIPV
Experimental: as §4, §5, §6

human bactosomes CYP2A6 = biological target: T3, human bactosomes CYP2A6 (Homo sapiens, UniProt P11509); test: Isothermal titration calorimetry, bactosomes CYP2A6; format: binding; settings: 25 °C; for n, CYP2A6B: ITC stoichiometry, pH 7.4; for Ka, CYP2A6B / ΔG, CYP2A6B / ΔH, CYP2A6B / ΔS, CYP2A6B / Kd: ITC, pH 7.4, 1% DMSO; for Kd: read-out: Kd, CYP2A6B
T3 construct: purchased BD Biosciences (Franklin Lakes, NJ, USA); host or cells: bacterial membranes ('bactosomes')
T3 sequence (P11509 1-494): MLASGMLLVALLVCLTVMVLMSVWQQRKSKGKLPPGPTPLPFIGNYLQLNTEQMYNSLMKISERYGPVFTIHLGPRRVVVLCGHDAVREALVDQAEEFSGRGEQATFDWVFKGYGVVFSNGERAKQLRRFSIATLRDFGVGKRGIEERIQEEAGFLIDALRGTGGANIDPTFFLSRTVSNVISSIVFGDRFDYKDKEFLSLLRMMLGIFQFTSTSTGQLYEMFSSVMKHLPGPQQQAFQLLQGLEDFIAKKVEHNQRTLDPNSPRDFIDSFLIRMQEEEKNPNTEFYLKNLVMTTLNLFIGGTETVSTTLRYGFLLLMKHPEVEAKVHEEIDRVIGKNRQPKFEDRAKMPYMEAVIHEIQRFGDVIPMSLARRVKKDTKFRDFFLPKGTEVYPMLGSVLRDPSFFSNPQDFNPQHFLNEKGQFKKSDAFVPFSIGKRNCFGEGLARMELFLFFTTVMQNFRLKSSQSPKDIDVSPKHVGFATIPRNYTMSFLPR
Experimental: (§3) The interactions of the compounds with selected forms of cytochrome P450, i.e., human bactosomes CYP1A2, CYP2A6, CYP3A4, and recombinant human CYP3A4, were studied using isothermal titration calorimetry (ITC). ITC experiments were performed at 25 °C with a Nano ITC Low Volume (TA Instruments, New Castle, DE, USA). During all measurements, 20 injections of 16µM of the studied compound (2.5 µL each) were titrated into 250 µL of protein (2 µM) with time intervals of 300 s and a stirring speed of 250 rpm. All ITC experiments were conducted with degassed buffered solutions (100 mM phosphate buffer, pH 7.4) in the presence of 1% DMSO. Control experiments included the titration of each complex solution into a buffer. The corrected data refer to experimental data after subtraction of the buffer control data from the compounds data. The resulting thermograms were analysed using the “Independent” model within the NanoAnalyze software (TA Instruments, New Castle, DE, USA).

CYP3A4 [3] = biological target: T4, CYP3A4 (Homo sapiens, UniProt P08684); test: Isothermal titration calorimetry, recombinant human CYP3A4; format: binding; set-up: purchased Sigma-Aldrich (Prague, Czech Republic); settings: recombinant human CYP3A4, 25 °C; for n, CYP3A4: ITC stoichiometry, pH 7.4; for Ka, CYP3A4 / Kd / ΔG, CYP3A4 / ΔH, CYP3A4 / ΔS, CYP3A4: ITC, pH 7.4, 1% DMSO
Experimental: as §3
Target sequence in this assay (P08684 whole entry): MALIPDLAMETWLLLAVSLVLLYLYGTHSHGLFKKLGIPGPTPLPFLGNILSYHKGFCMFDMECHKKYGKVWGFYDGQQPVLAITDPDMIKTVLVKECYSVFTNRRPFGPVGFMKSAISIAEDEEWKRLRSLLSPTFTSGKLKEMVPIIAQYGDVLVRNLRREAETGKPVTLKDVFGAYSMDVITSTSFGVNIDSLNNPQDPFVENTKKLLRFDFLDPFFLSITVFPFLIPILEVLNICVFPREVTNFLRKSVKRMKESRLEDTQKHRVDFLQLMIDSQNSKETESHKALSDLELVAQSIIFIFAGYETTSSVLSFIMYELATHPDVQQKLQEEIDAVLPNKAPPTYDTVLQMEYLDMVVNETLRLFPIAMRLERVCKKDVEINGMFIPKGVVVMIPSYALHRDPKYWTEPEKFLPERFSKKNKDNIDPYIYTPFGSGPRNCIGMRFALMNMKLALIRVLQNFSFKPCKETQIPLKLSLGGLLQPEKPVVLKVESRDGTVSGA

CYP3A4 [4] = biological target: T4, CYP3A4; test: CYP3A4 activity (midazolam 1′-hydroxylation) in human liver microsomes; settings: read-out: IC50 CYP3A4 (midazolam 1′-hydroxylation assay); human liver microsomes
Target sequence in this assay (P08684 2-503): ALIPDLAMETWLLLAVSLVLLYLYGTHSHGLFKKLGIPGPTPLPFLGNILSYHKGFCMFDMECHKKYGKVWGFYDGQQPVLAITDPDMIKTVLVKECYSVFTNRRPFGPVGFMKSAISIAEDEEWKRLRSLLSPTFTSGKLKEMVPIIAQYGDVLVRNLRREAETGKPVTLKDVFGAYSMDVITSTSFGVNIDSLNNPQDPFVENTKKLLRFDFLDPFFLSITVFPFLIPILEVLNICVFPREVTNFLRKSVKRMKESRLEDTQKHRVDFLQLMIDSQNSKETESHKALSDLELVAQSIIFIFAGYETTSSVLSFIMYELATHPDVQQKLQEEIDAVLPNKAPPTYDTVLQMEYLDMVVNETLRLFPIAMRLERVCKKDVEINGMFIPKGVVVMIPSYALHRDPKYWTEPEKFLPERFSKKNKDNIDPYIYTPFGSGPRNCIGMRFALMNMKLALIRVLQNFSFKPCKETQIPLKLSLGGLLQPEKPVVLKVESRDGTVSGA
Experimental: as §4, §5, §6

[5] = tested on: human liver microsomal cytochrome P450s; test: Difference spectra (UV-visible spectral titration) with human liver microsomes; settings: read-out: Ks (spectral binding constant); spectral differences at 386 nm, CYP 1 µM, pH 7.4, room temperature
Experimental: (§7) The cuvette contained microsomes diluted to final concentration of CYP 1 µM in 50 mM potassium phosphate buffer (pH 7.4). The tested compounds were dissolved in the same buffer, and their concentrations in the experiments ranged from 0.002 to 33.310 µM. The UV-Visible spectra were recorded at room temperature by repetitive scanning between 300 and 700 nm using Varian 500 UV/VIS spectrophotometer (Agilent Technologies, Wakefield, MA, USA). Changes of absorbance in the range of the Soret’s region (380–450 nm) were plotted against the concentration of the studied compounds. Data were analysed using GraphPad Prism 6 software (La Jolla, CA, USA).

[6] = tested on: human liver microsomal cytochrome P450s; settings: pH 7.4
Experimental: as §7

Row | Compound | % Compound Remaining, Chemical Stability, 15 min [1] [%] | % Compound Remaining, Chemical Stability, 30 min [1] [%] | % Compound Remaining, Chemical Stability, 60 min [1] [%] | % Compound Remaining, Chemical Stability, 120 min [1] [%] | % Compound Remaining, Plasma Stability, 15 min [2] [%] | % Compound Remaining, Plasma Stability, 30 min [2] [%] | % Compound Remaining, Plasma Stability, 60 min [2] [%] | % Compound Remaining, Plasma Stability, 120 min [2] [%] | Type of inhibition, CYP2C9 (CYP2C9) | Ki (CYP2C9) [nM] | IC50 (CYP2C9) [µM] | Type of inhibition, CYP2C19 (CYP2C19) | Ki (CYP2C19) [µM] | IC50 (CYP2C19) [µM] | n, CYP2A6B (human bactosomes CYP2A6) | Ka, CYP2A6B (human bactosomes CYP2A6) [M⁻¹] | ΔG, CYP2A6B (human bactosomes CYP2A6) | ΔH, CYP2A6B (human bactosomes CYP2A6) [kJ/mol] | ΔS, CYP2A6B (human bactosomes CYP2A6) [J/mol.K] | Kd (human bactosomes CYP2A6) [nM] | further results
1 | Cc1cc2cccnc2c2ncccc12.F[B-](F)(F)F.O.O=c1c([O-])c(-c2ccccc2)[nH]c2ccccc12.[Cu+2] [complex 2] | 99.6 ± 3.0 | 96.8 ± 2.4 | 94.0 ± 3.3 | 96.6 ± 2.4 | 98.3 ± 2.4 | 94.1 ± 2.4 | 96.6 ± 3.4 | 92.6 ± 2.2 | fully non-competitive | 920 ± 250 | 37.2 | fully non-competitive | 9.14 ± 0.8 | 77.1 | 1.071 | 3.12e+06 | −37,070.9 J/mol | -23.04 | 47.06 | 321 | CYP2C9 activity remaining, % of the control (CYP2C9; at 100 μM): 7%; CYP2C19 activity remaining, % of the basal activity (CYP2C19; at 100 μM): 36%; n, CYP3A4 (CYP3A4 [3]): 1.095; Ka, CYP3A4 (CYP3A4 [3]): 1.59e+07 M⁻¹; Kd (CYP3A4 [3]): 62.9 nM; ΔG, CYP3A4 (CYP3A4 [3]): -5586.6 J/mol; ΔH, CYP3A4 (CYP3A4 [3]): -51.77 kJ/mol; ΔS, CYP3A4 (CYP3A4 [3]): −154.9 J/mol.K; IC50 (CYP3A4 [4]): 33 ± 1.13 µM; Kd [5]: 8.56 ± 1 µM
2 | Cc1cc2cccnc2c2ncccc12.O.O=[N+]([O-])[O-].O=c1c([O-])c(-c2ccccc2)[nH]c2ccccc12.[Cu+2] [complex 1] | 99.6 ± 3.6 | 99.9 ± 1.5 | 97.8 ± 3.4 | 96.6 ± 3.4 | 98.9 ± 2.5 | 94.0 ± 3.3 | 94.2 ± 2.3 | 91.2 ± 1.2 | non-competitive | 2560 ± 370 | 16.3 | non-competitive | 4.15 ± 0.71 | 61.2 | 0.801 | 1.04e+06 | −40,050.9 J/mol | -31.81 | 27.64 | 962 | Kd [6]: 7.59 ± 1.8 µM; n, CYP3A4 (CYP3A4 [3]): 1.171; Ka, CYP3A4 (CYP3A4 [3]): 1.3e+07 M⁻¹; Kd (CYP3A4 [3]): 76.9 nM; ΔG, CYP3A4 (CYP3A4 [3]): −34,899.9 J/mol; ΔH, CYP3A4 (CYP3A4 [3]): -88.06 kJ/mol; ΔS, CYP3A4 (CYP3A4 [3]): −178.3 J/mol.K; IC50 (CYP3A4 [4]): 28.8 ± 2.55 µM
